The values that follow are results of earlier work, collected in patent US20010031747A1, “Progestin therapy for maintaining amenorrhea” (COLUMBIA LABORATORIES (BERMUDA) LIMITED, priority 1997, published 2001).

Read-outs that look alike come from different tables or passages of the source.

For data set [1] the following is noted: sublingual.
Data set [2] deals with endometrium. The note with it: topical application to the breast.
The conditions of data set [3]: intramuscular; 100 mg doses.
For data set [4] the following is noted: subdermal, six 100 mg pellets.
The conditions of data set [5]: nasal.

On to `CC(=O)[C@H]1CC[C@H]2[C@@H]3CCC4=CC(=O)CC[C@]4(C)[C@H]3CC[C@]12C` [progesterone], for which the “Time to return to basal levels” value in data set [1] is listed as “twenty-four”. For the setting “vaginal suspension 50 mg/ml (carboxymethyl cellulose, methyl cellulose), after 15 minutes”, the “Increase over baseline serum levels” value is given as 10 fold. Moreover, the “Peak increase over baseline levels” value (vaginal suspension 50 mg/ml, at peak) is given as “thirty- to forty”. The “Serum level after decline” value (vaginal suspension 50 mg/ml, declining over the next ten hours) is 3.68 ng/mL. Further, the Peak serum level (vaginal suspension 50 mg/ml, maintained over the next seven hours) is 12.25 ng/mL. In addition, in data set [2], the Endometrial effects entry is listed as “no significant endometrial effects”. Besides, the “Time to achieve serum concentrations” value in data set [3] is reported as “two to eight”. In data set [4] (six months after implantation), the “Mean peak progesterone level” value was 1.9 ng/mL. The Peak progesterone level in data set [4] (within the first week after insertion) is 4.4 ng/mL. The results for the Mean maximum concentration in data set [5] (20 mg dose) and in data set [5] (30 mg dose) were 2.1 ng/mL and 4.1 ng/mL, respectively. Further, the “Time of mean maximum concentration” value in data set [5] (20 mg dose) was “approximately 30 minutes”; in data set [5] (30 mg dose), about 240 min.
